This is an account of results in patent publication US9650340B2, “5-fluoro-N-(pyridin-2-yl)pyridin-2-amine derivatives containing a sulfoximine group” (BAYER PHARMA AKTIENGESELLSCHAFT, priority 2012, dated 2017).

Series [1] can be described thus: Equilibrium shake flask solubility assay, thermodynamic solubility in water pH 6.5. The class given is physicochemical. The note with it: phosphate buffer pH 6.5, 24 h, room temperature; for solubility at 24 h: phosphate buffer, pH 6.5, aqueous buffer, thermodynamic from solid. Here is the method: 4. Equilibrium Shake Flask Solubility Assay:
4a) Thermodynamic Solubility in Water
The thermodynamic solubility of compounds in water was determined by an equilibrium shake flask method (see for example: E. H. Kerns, L. Di: Drug-like Properties: Concepts, Structure Design and Methods, 276-286, Burlington, Mass., Academic Press, 2008). A saturated solution of the drug was prepared and the solution was mixed for 24 h to ensure that equilibrium was reached. The solution was centrifuged to remove the insoluble fraction and the concentration of the compound in solution was determined using a standard calibration curve. To prepare the sample, 2 mg solid compound was weighed in a 4 mL glass vial. 1 mL phosphate buffer pH 6.5 was added. The suspension was stirred for 24 hrs at room temperature. The solution was centrifuged afterwards. To prepare the sample for the standard calibration, 2 mg solid sample was dissolved in 30 mL acetonitrile. After sonification the solution was diluted with water to 50 mL. Sample and standards were quantified by HPLC with UV-detection. For each sample two injection volumes (5 and 50 μl) in triplicates were made. Three injection volumes (5 μl, 10 μl and 20 μl) were made for the standard.
The areas of sample- and standard injections as well as the calculation of the solubility value (in mg/l) were determined by using HPLC software (Waters Empower 2 FR).

The nature of series [2]: Caco-2 permeation assay. The class given is in vitro ADME, human. Particulars: human; for Papp A→B at 2 h, 2 µM / Papp B→A at 2 h, 2 µM: Caco-2, pH 7.2, Caco-2, 2 μM test compound; for Papp A→B at 2 h, 2 µM: apical to basolateral, read-out: Papp A-B (Mari); for Papp B→A at 2 h, 2 µM: basolateral to apical, read-out: Papp B-A (Mari); for efflux ratio at 2 h, 2 µM: Caco-2, pH 7.2, Caco-2, 2 μM, Papp B-A / Papp A-B. Here is the method: (§1) 5. Caco-2 Permeation Assay:
(§2) Caco-2 cells (purchased from DSMZ Braunschweig, Germany) were seeded at a density of 4.5×10^4 cells per well on 24 well insert plates, 0.4 μm pore size, and grown for 15 days in DMEM medium supplemented with 10% fetal bovine serum, 1% GlutaMAX (100×, GIBCO), 100 U/mL penicillin, 100 μg/mL streptomycin (GIBCO) and 1% non essential amino acids (100 ×). Cells were maintained at 37° C. in a humified 5% CO2 atmosphere. Medium was changed every 2-3 day. Before running the permeation assay, the culture medium was replaced by a FCS—free hepes-carbonate transport buffer (pH 7.2). For assessment of monolayer integrity the transepithelial electrical resistance (TEER) was measured. Test compounds were predissolved in DMSO and added either to the apical or basolateral compartment in final concentration of 2 μM in transport buffer. Before and after 2 h incubation at 37° C. samples were taken from both compartments. Analysis of compound content was done after precipitation with methanol by LC/MS/MS analysis. Permeability (Papp) was calculated in the apical to basolateral (A→B) and basolateral to apical (B→A) directions. The apparent permeability was calculated using following equation: Papp=(Vr/Po)(1/S)(P2/t)
(§3) Where Vr is the volume of medium in the receiver chamber, Po is the measured peak area or height of the test drug in the donor chamber at t=o, S the surface area of the monolayer, P2 is the measured peak area of the test drug in the acceptor chamber after 2 h of incubation, and t is the incubation time. The efflux ratio basolateral (B) to apical (A) was calculated by dividing the Papp B-A by the Papp A-B. In addition the compound recovery was calculated. The following reference compounds were used for the classification of the permeability class: Antipyrine, Pyrazosin, Verapamil, Fluvastatin, Cimetidine, Ranitidine, Atenolol, Sulfasalazine.

Series [3] concerns the target T1, human carbonic anhydrase-1 (Homo sapiens, UniProt P00915).
T1 construct: purchased Sigma C4396
Description: Carbonic anhydrase assay, carbonic anhydrase-1. The class given is biochemical. Particulars: read-out: Inhibition of Carbonic anhydrase-1 IC50. The protocol: (§4) 6. Carbonic Anhydrase Assay
(§5) The principle of the assay is based on the hydrolysis of 4-nitrophenyl acetate by carbonic anhydrases (Pocker & Stone, Biochemistry, 1967, 6, 668), with subsequent photometric determination of the dye product 4-nitrophenolate at 400 nm by means of a 96-channel spectral photometer.
(§6) 2 μL of the test compounds, dissolved in DMSO (100-fold final concentration), in a concentration range of 0.03-10 μmol/L (final), was pipetted as quadruplicates into the wells of a 96-hole microtiter plate. Wells that contained the solvent without test compounds were used as reference values (1. Wells without carbonic anhydrase for correction of the non-enzymatic hydrolysis of the substrate, and 2. Wells with carbonic anhydrase for determining the activity of the non-inhibited enzyme).
(§7) 188 μL of assay buffer (10 mmol/L of Tris/HCl, pH 7.4, 80 mmol/L of NaCl), with or without 3 units/well of carbonic anhydrase-1 [=human carbonic anhydrase-1 (Sigma, #C4396)] in order to determine carbonic anhydrase-1 inhibition or 3 units/well of carbonic anhydrase-2 [=human carbonic anhydrase-2 (Sigma, #C6165)] for measuring carbonic anhydrase-2 inhibition, was pipetted into the wells of the microtiter plate.

In series [4] the target is human carbonic anhydrase-2 (Homo sapiens, UniProt P00918). Put plainly: Carbonic anhydrase assay, carbonic anhydrase-2. It counts as biochemical. Particulars: read-out: Inhibition of Carbonic anhydrase-2 IC50. Here is the method:
as §4, §5, §6, §7

The subject of series [5] is Caco-2 cell monolayers. Description: Caco-2 permeation assay. The class given is in vitro ADME, human. The note with it: for Papp A-B (Mari) / Papp B-A (Mari): Caco-2, 2 μM test compound; for Papp A-B (Mari): apical to basolateral; for Papp B-A (Mari): basolateral to apical. The protocol: as §1, §2, §3
(In general: Passage across Caco-2 layers is used to estimate intestinal permeability.)

The structures appear in SMILES notation. In brackets after ≈: the same amount, converted by molar mass. Where only a bound is given, the exact number is not on record here.

T1 sequence (P00915 whole entry): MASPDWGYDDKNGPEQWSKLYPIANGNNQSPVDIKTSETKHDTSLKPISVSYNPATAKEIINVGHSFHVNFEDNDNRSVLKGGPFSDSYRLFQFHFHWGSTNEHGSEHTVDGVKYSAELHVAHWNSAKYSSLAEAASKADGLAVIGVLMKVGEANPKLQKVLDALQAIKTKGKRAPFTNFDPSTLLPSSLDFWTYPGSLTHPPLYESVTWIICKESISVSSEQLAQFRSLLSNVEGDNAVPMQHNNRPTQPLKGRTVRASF

A word on the solubility: it is how much of the substance goes into solution per volume. High values mean a readily soluble substance, low ones a poorly soluble substance. The Papp A→B is how fast a substance crosses the layer from the apical side. The term Papp B→A denotes how fast a substance crosses the layer from the basolateral side. As a reminder, the IC50 is the concentration needed to halve the response being measured. The molecule `COc1cc(F)ccc1-c1cc(Nc2cc(CS(C)(=N)=O)ccn2)ncc1F` (racemic) [Example 1, (rac)-5-Fluoro-4-(4-fluoro-2-methoxyphenyl)-N-{4-[(S-methylsulfonimidoyl)methyl]pyridin-2-yl}pyridin-2-amine] came in with a solubility at 24 h in series [1] of 13 µg/mL (≈ 32.1 µM). In addition, the Papp A→B at 2 h, 2 µM in series [2] is 15.5 ×10⁻⁶ cm/s. Also, in series [2], the apparent permeability from basolateral to apical (Papp B→A) at 2 h, 2 µM worked out at 18 ×10⁻⁶ cm/s. The IC50 in series [3] and in series [4] was > 10 µM throughout.
For orientation: efflux ratio means the permeability from basolateral to apical divided by that in the opposite direction, in the common usage. For `COc1cc(F)ccc1-c1cc(Nc2cc(CS(C)(=N)=O)cc(C)n2)ncc1F` (racemic) [Example 4, (rac)-5-Fluoro-4-(4-fluoro-2-methoxyphenyl)-N-{6-methyl-4-[(S-methylsulfonimidoyl)methyl]pyridin-2-yl}pyridin-2-amine], in series [2], the Papp A→B at 2 h, 2 µM worked out at 19.6 ×10⁻⁶ cm/s; the basolateral-to-apical permeability (Papp B→A) at 2 h, 2 µM came to 14.9 ×10⁻⁶ cm/s; the efflux ratio at 2 h, 2 µM was 0.76.
As for `COc1cc(F)ccc1-c1cc(Nc2cc(CS(=N)(=O)CCO)ccn2)ncc1F` (racemic) [Example 8, (rac)-2-{S-[(2-{[5-Fluoro-4-(4-fluoro-2-methoxyphenyl)pyridin-2-yl]amino}pyridin-4-yl)methyl]sulfonimidoyl}ethanol], in series [2], the Papp A→B at 2 h, 2 µM was 4.1 ×10⁻⁶ cm/s; the apparent permeability from basolateral to apical (Papp B→A) at 2 h, 2 µM is 24.6 ×10⁻⁶ cm/s; the efflux ratio at 2 h, 2 µM came out at 6.
For `COc1cc(F)ccc1-c1cc(Nc2cc(CS(C)(=N)=O)cc(F)n2)ncc1F` (racemic) [Example 17, (rac)-5-Fluoro-4-(4-fluoro-2-methoxyphenyl)-N-{6-fluoro-4-[(S-methylsulfonimidoyl)methyl]pyridin-2-yl}pyridin-2-amine], in that order: 14.1 ×10⁻⁶ cm/s, 13.5 ×10⁻⁶ cm/s and 0.96.
On to `COc1cc(F)ccc1-c1cc(Nc2cc(CS(C)(=N)=O)cc(C(F)(F)F)n2)ncc1F` (racemic) [Example 21, (rac)-5-Fluoro-4-(4-fluoro-2-methoxyphenyl)-N-{4-[(S-methylsulfonimidoyl)methyl]-6-(trifluoromethyl)pyridin-2-yl}pyridin-2-amine], for which, in series [2], the Papp A→B at 2 h, 2 µM was determined as 5.1 ×10⁻⁶ cm/s; the Papp B→A at 2 h, 2 µM was 3.3 ×10⁻⁶ cm/s; the efflux ratio at 2 h, 2 µM is 0.64.
For `CCS(=N)(=O)Cc1ccnc(Nc2cc(-c3ccc(F)cc3OC)c(F)cn2)c1` (racemic) [Example 30, (rac)-N-{4-[(S-Ethylsulfonimidoyl)-methyl]pyridin-2-yl}-5-fluoro-4-(4-fluoro-2-methoxyphenyl)pyridin-2-amine], in that order: 18.6 ×10⁻⁶ cm/s, 17.2 ×10⁻⁶ cm/s and 0.92.
The molecule `COc1cc(F)ccc1-c1cc(Nc2cc(CS(C)(=N)=O)ccn2)ncc1F` (single isomer, unassigned; (+)) [Example 2, (+)-5-Fluoro-4-(4-fluoro-2-methoxyphenyl)-N-{4-[(S-methylsulfonimidoyl)methyl]pyridin-2-yl}pyridin-2-amine] yielded a solubility at 24 h in series [1] of 25 µg/mL (≈ 61.8 µM). In series [2], the Papp A→B at 2 h, 2 µM is 16.6 ×10⁻⁶ cm/s and the apparent permeability from basolateral to apical (Papp B→A) at 2 h, 2 µM is 18.6 ×10⁻⁶ cm/s.
On to `COc1cc(F)ccc1-c1cc(Nc2cc(CS(C)(=N)=O)cc(C(F)(F)F)n2)ncc1F` (single isomer, unassigned; (+)) [Example 22, (+)-5-Fluoro-4-(4-fluoro-2-methoxyphenyl)-N-{4-[(S-methylsulfonimidoyl)methyl]-6-(trifluoromethyl)pyridin-2-yl}pyridin-2-amine], for which, in series [2], the Papp A→B at 2 h, 2 µM came out at 4.8 ×10⁻⁶ cm/s; the Papp B→A at 2 h, 2 µM stood at 5.3 ×10⁻⁶ cm/s; the efflux ratio at 2 h, 2 µM is 1.1.
With `COc1cc(F)ccc1-c1cc(Nc2cc(CS(C)(=N)=O)ccn2)ncc1F` (single isomer, unassigned; (-)) [Example 3, (−)-5-Fluoro-4-(4-fluoro-2-methoxyphenyl)-N-{4-[(S-methylsulfonimidoyl)methyl]pyridin-2-yl}pyridin-2-amine], in series [1], the “Solubility in water at pH 6.5” value was found to be 27 mg/l. For the same molecule, in series [5], the “Papp A-B (Mari)” value was found to be 13.3 ×10⁻⁶ cm/s and the “Papp B-A (Mari)” value is 19.7 ×10⁻⁶ cm/s.
For `COc1cc(F)ccc1-c1cc(Nc2cc(CS(C)(=N)=O)cc(C(F)(F)F)n2)ncc1F` (single isomer, unassigned; (-)) [Example 23, (−)-5-Fluoro-4-(4-fluoro-2-methoxyphenyl)-N-{4-[(S-methylsulfonimidoyl)methyl]-6-(trifluoromethyl)pyridin-2-yl}pyridin-2-amine], in series [5], the “Papp A-B (Mari)” value worked out at 4.7 ×10⁻⁶ cm/s and the “Papp B-A (Mari)” value came to 6.2 ×10⁻⁶ cm/s. Moreover, the Efflux ratio in series [5] (Caco-2, 2 μM, Papp B-A / Papp A-B) is on record as 1.3.
